Laboratory results reported in article PMC12650660, “Novel Synthetic Strategies Towards Analogues of Cadaside and Malacidin Antibiotic Peptides” (Biomolecules, 2025).
Values after ≈ are worked out from the molar mass of the structure shown. “Also recorded” adds a separate entry of the source. Numbered stars: 1 amine (or outer) side, 2 acyl side, 3 side chain; on linkers, the order of the positions; unused ones are H or OH. Bridge positions count the residues as written; N and C are the ends. Square brackets hold non-standard residues; d marks the D form. Peptide text beside a SMILES is read from it. * marks the point of attachment. β2hAla(R) = C[C@H](CN[*:1])C(=O)[*:2]; Decanoyl = CCCCCCCCCC(=O)*; Dap = NC[C@H](N)C(=O)O; Sar = CNCC(=O)O

Tests used:
[1] = TLC precursor-binding assay with lipid II; set-up: key to Lipid II (TLC binding): “+” indicates binding confirmed; “-” indicates no binding; “~” indicates potential binding with absence of precursor band; details: for Lipid II (TLC binding): peptide 0.5, 1, 2 equiv. (nisin 0.1, 0.5, 1 equiv.) with lipid II in Tris·HCl pH 7.5, 50 mM CaCl2, 1 h, silica TLC; for binding to lipid II in TLC assay (in words): lipid II spot on TLC after incubation, PMA staining in Figure S6
Experimental: (§1) Lipid II and undecaprenyl phosphate (C55-P) (1 equiv., 30 µL) in Tris•HCl buffer (0.2% Triton X-100, 26 mM MgCl2, and 50 mM CaCl2 at pH 7.5) were incubated with the peptides (0.5, 1, 2 equiv.) or nisin (0.1, 0.5, 1 equiv.) in 30 µL water for 1 h. The reaction was then extracted with ^tBuOH/6 M PyOAc (2/1 v/v, 100 µL) and the organic phase was dried using an Eppendorf vacuum centrifuge 5301 (Fisher Scientific, Loughborough, UK) under reduced pressure. The solid was redissolved in CHCl3/MeOH (1/1 v/v, 30–60 µL) for spotting onto the TLC plates. In addition to the peptide–lipid mixtures, a control of each peptide/nisin with 30 µL buffer, and a control of each lipid with 30 µL HPLC-grade water were also incubated and subjected to the same workup. Silica TLC plates were run in a CHCl3/MeOH/H2O/NH3 (88/48/10/1 v/v) solvent system and stained using iodine vapour, phosphomolybdic acid (PMA), or KMnO4 stain, as well as visualisation at 254 nm and 365 nm.

[2] = TLC precursor-binding assay with C55-P; set-up: key to C55-P (TLC binding): “+” indicates binding confirmed; “-” indicates no binding; “~” indicates potential binding with absence of precursor band; details: for C55-P spot on TLC after incubation with peptide (in words): absence of C55-P spot = potential indicator of binding, KMnO4 staining in Figure S5; for C55-P (TLC binding): peptide 0.5, 1, 2 equiv. with C55-P in Tris·HCl pH 7.5, 50 mM CaCl2, 1 h, silica TLC
Experimental: as §1

[3] = system: B. subtilis 168; type: cell-based; details: 168, 24 h
Experimental: MICs were measured in triplicate by microbroth dilution. An overnight culture of B. subtilis 168 (DSMZ German Collection of Microorganisms and Cell Cultures GmbH) was inoculated at 5 × 10^5 CFU/mL in cation-adjusted Mueller–Hinton broth (MHB II) with or without 15 mM or 100 mM CaCl2. Serial two-fold peptide dilutions (128 - 1 µg/mL for analogues and 16 - 0.25 µg/mL for daptomycin) were incubated in polypropylene U-bottom 96-well plates (200 µL final volume) at 37 °C for 24 h. MIC was the lowest concentration at which no growth was observed. Optical density measurements at 620 nm were performed using a Thermo Scientific Multiskan FC (Thermo Fisher Scientific Inc., Paisley, UK). MIC was determined from the lowest concentration at which no tubidity was observed, using an untreated positive growth control, and a broth-only sterility control as references.

Molecule | Lipid II (TLC binding) [1] | C55-P spot on TLC after incubation with peptide (in words) [2] | MIC + Ca^2+ [3] [µg/mL] | MIC − Ca^2+ [3] [µg/mL] | C55-P (TLC binding) [2] | binding to lipid II in TLC assay (in words) [1]
CCCCCCCCCC(=O)NC[C@@H](C)C(=O)NCC(=O)N[C@H](CCC(=O)O)C(=O)N[C@@H](Cc1ccc(O)cc1)C(=O)N[C@@H]1C(=O)N[C@H]([C@H](C)CC)C(=O)N[C@@H](CC(=O)O)C(=O)N[C@@H](CC(=O)O)C(=O)N2CCC[C@H]2C(=O)NCC(=O)N[C@@H](CCC(=O)O)C(=O)N[C@@H](CCC(=O)O)C(=O)N(C)CC(=O)O[C@@H]1C [Peptide C2b] (Decanoyl-[β2hAla(R)]G[dE]YT[dI]DDPGEE[Sar]; ester 5-C) | - | no longer visible |  |  |  | 
CCCCCCCCCC(=O)NC[C@@H](C)C(=O)NCC(=O)N[C@H](CCC(=O)O)C(=O)N[C@@H](Cc1ccc(O)cc1)C(=O)N[C@@H]1C(=O)N[C@H]([C@H](C)CC)C(=O)N[C@@H](CC(=O)O)C(=O)N[C@@H](CC(=O)O)C(=O)N2CCC[C@H]2C(=O)NCC(=O)N[C@@H](CC(=O)O)C(=O)N[C@@H](CCC(=O)O)C(=O)N(C)CC(=O)O[C@@H]1C [Peptide C6] (Decanoyl-[β2hAla(R)]G[dE]YT[dI]DDPGDE[Sar]; ester 5-C) | - | no longer visible | 128 | 128 (≈ 85.2 µM) | ~ | 
CCCCCCCCCC(=O)N[C@@H](CC(=O)O)C(=O)N[C@H]1CNC(=O)[C@@H]2CCCN2C(=O)[C@H](C(C)C)NC(=O)[C@H](CC(=O)O)NC(=O)CNC(=O)[C@H](CC(=O)O)NC(=O)CNC(=O)[C@H](CC(=O)O)NC(=O)[C@H](CCCCN)NC(=O)[C@@H](C(C)C)NC1=O [Peptide M3] (Decanoyl-D[Dap][dV]KDGDGDVP; lactam 2-C) | - |  | 128 | 128 (≈ 103 µM) | - | lack of binding
CCCCCCCCCC(=O)NC[C@@H](C)C(=O)NCC(=O)N[C@H](CCC(=O)O)C(=O)N[C@@H](Cc1ccc(O)cc1)C(=O)N[C@@H]1C(=O)N[C@H]([C@H](C)CC)C(=O)N[C@@H](CC(=O)O)C(=O)N[C@@H](CC(=O)O)C(=O)N2CCC[C@H]2C(=O)NCC(=O)N[C@@H](CCC(=O)O)C(=O)N[C@@H](CCC(=O)O)C(=O)N(C)CC(=O)O[C@@H]1C [Peptide C2c] (Decanoyl-[β2hAla(R)]G[dE]YT[dI]DDPGEE[Sar]; ester 5-C) | - | no longer visible |  |  |  | 
CCCCCCCCCC(=O)NC[C@@H](C)C(=O)NCC(=O)N[C@H](CCC(=O)O)C(=O)N[C@@H](Cc1ccc(O)cc1)C(=O)N[C@@H]1C(=O)N[C@H]([C@H](C)CC)C(=O)N[C@@H](CC(=O)O)C(=O)N[C@@H](CC(=O)O)C(=O)N2CCC[C@H]2C(=O)NCC(=O)N[C@H](CC(=O)O)C(=O)N[C@@H](CC(=O)O)C(=O)N(C)CC(=O)O[C@@H]1C [Peptide C3] (Decanoyl-[β2hAla(R)]G[dE]YT[dI]DDPG[dD]D[Sar]; ester 5-C) | - | no spots for C55-P; also recorded: no longer visible | 128 | 128 (≈ 86 µM) | ~ | 
CCCCCCCCCC(=O)NC[C@@H](C)C(=O)NCC(=O)N[C@H](CCC(=O)O)C(=O)N[C@@H](Cc1ccc(O)cc1)C(=O)N[C@@H]1C(=O)N[C@H]([C@H](C)CC)C(=O)N[C@@H](CC(=O)O)C(=O)N[C@@H](CC(=O)O)C(=O)N2CCC[C@H]2C(=O)NCC(=O)N[C@@H](CC(=O)O)C(=O)N[C@@H](CC(=O)O)C(=O)N(C)CC(=O)O[C@@H]1C [Peptide C4] (Decanoyl-[β2hAla(R)]G[dE]YT[dI]DDPGDD[Sar]; ester 5-C) | - |  | 128 | 128 (≈ 86 µM) | - | 
CCCCCCCCCC(=O)N[C@@H](CC(=O)O)C(=O)N[C@H]1CNC(=O)[C@@H]2CCCN2C(=O)[C@H](C(C)C)NC(=O)[C@@H](CC(=O)O)NC(=O)CNC(=O)[C@H](CC(=O)O)NC(=O)CNC(=O)[C@H](CC(=O)O)NC(=O)[C@H](CCCCN)NC(=O)[C@@H](C(C)C)NC1=O [Peptide M2] (Decanoyl-D[Dap][dV]KDGDG[dD]VP; lactam 2-C) | - |  | 128 | 128 (≈ 103 µM) | - | 
Nisin [reference compound] | + |  |  |  |  | nisin-lipid II binding; also recorded: Positive binding
CCCCCCCCCC(=O)N[C@@H](CC(=O)O)C(=O)N[C@H]1CNC(=O)[C@@H]2CCCN2C(=O)[C@H](C(C)C)NC(=O)[C@@H](CC(=O)O)NC(=O)CNC(=O)[C@H](CC(=O)O)NC(=O)[C@H](CC(=O)O)NC(=O)[C@H](CCCCN)NC(=O)[C@@H](C(C)C)NC1=O [Peptide M1] (Decanoyl-D[Dap][dV]KDDG[dD]VP; lactam 2-C) | - |  | 128 | 128 (≈ 108 µM) | - | 
CCCCCCCCCC(=O)NC[C@@H](C)C(=O)NCC(=O)N[C@H](CCC(=O)O)C(=O)N[C@@H](Cc1ccc(O)cc1)C(=O)N[C@@H]1C(=O)N[C@H]([C@H](C)CC)C(=O)N[C@@H](CC(=O)O)C(=O)N[C@@H](CC(=O)O)C(=O)N2CCC[C@H]2C(=O)NCC(=O)N[C@H](CCC(=O)O)C(=O)N[C@@H](CC(=O)O)C(=O)N(C)CC(=O)O[C@@H]1C [Peptide C7b] (Decanoyl-[β2hAla(R)]G[dE]YT[dI]DDPG[dE]D[Sar]; ester 5-C) |  |  | 128 |  |  | 
CCCCCCCCCC(=O)NC[C@@H](C)C(=O)NCC(=O)N[C@H](CCC(=O)O)C(=O)N[C@@H](Cc1ccc(O)cc1)C(=O)N[C@@H]1C(=O)N[C@H]([C@H](C)CC)C(=O)N[C@@H](CC(=O)O)C(=O)N[C@@H](CC(=O)O)C(=O)N2CCC[C@H]2C(=O)NCC(=O)N[C@H](CCC(=O)O)C(=O)N[C@@H](CC(=O)O)C(=O)N(C)CC(=O)O[C@@H]1C [Peptide C7a] (Decanoyl-[β2hAla(R)]G[dE]YT[dI]DDPG[dE]D[Sar]; ester 5-C) | - |  | 128 | 128 (≈ 85.2 µM) | - | lack of binding
CCCCCCCCCC(=O)N[C@@H](CC(=O)O)C(=O)N[C@H]1CNC(=O)[C@@H]2CCCN2C(=O)[C@H](C(C)C)NC(=O)CNC(=O)[C@@H](CC(=O)O)NC(=O)CNC(=O)[C@H](CC(=O)O)NC(=O)[C@H](CC(=O)O)NC(=O)[C@H](CCCCN)NC(=O)[C@@H](C(C)C)NC1=O [Peptide M4] (Decanoyl-D[Dap][dV]KDDG[dD]GVP; lactam 2-C) | - |  | 128 | 128 (≈ 103 µM) | - | 
CCCCCCCCCC(=O)N[C@@H](CC(=O)O)C(=O)N[C@H]1CNC(=O)[C@@H]2CCCN2C(=O)[C@H](C(C)C)NC(=O)CNC(=O)[C@H](CC(=O)O)NC(=O)CNC(=O)[C@H](CC(=O)O)NC(=O)[C@H](CC(=O)O)NC(=O)[C@H](CCCCN)NC(=O)[C@@H](C(C)C)NC1=O [Peptide M5] (Decanoyl-D[Dap][dV]KDDGDGVP; lactam 2-C) | - |  | 128 | 128 (≈ 103 µM) | - | 
